Test results from paper PMC4354731 (Biochimica et biophysica acta, 2013).

Legend:
[1] = target: fumarate reductase (FrdABCD), FrdB subunit (Escherichia coli, UniProt P0A8Q0+P0A8Q3+P0AC47); assay: fluorescence quench titration in enriched membranes; assay type: binding
[2] = target: fumarate reductase (FrdABCD), FrdB subunit (Escherichia coli, UniProt P0A8Q0+P0A8Q3+P0AC47, P0AC47:S204R); assay: biochemical
[3] = target: fumarate reductase (FrdABCD), FrdB subunit (Escherichia coli, UniProt P0A8Q0+P0A8Q3+P0AC47, P0AC47:K229R); assay: biochemical
[4] = target: fumarate reductase (FrdABCD), FrdB subunit (Escherichia coli, UniProt P0A8Q0+P0A8Q3+P0AC47, P0AC47:K229L); assay: biochemical
[5] = target: fumarate reductase (FrdABCD), FrdB subunit (Escherichia coli, UniProt P0A8Q0+P0A8Q3+P0AC47, P0AC47:K229E); assay: biochemical

In the case of `CCCCCCCc1cc(O)c2ccccc2[n+]1[O-]` [HOQNO, 2-n-heptyl-4-hyroxyquinoline-N-oxide], the Kd [1] is reported as 5 nM, the Kd [2] is reported as 5 nM and the Kd [3] is reported as 80 nM. It also gave a Kd [4] of 110 nM and a Kd [5] of 110 nM.
